Test results from ChEMBL document CHEMBL1123233, “Preparation and analgesic activity of (-)-11 alpha-substituted 1,2,3,4,5,6-hexahydro-6 alpha,7-(methyleneoxy)-2,6-methano-3-benzazocines” (J Med Chem, 1986).
pEC50: −log10 of the molar value. Calls of active or inactive are those of the source. The calls are words filed in the database; no cut-off is given here.

Legend:
Mus musculus [1] = assay: Compound was tested in mouse tail-flick antinociceptive assay at 10 mg/kg; Inactive; format: functional, organism-based; design: dose 10 mg/kg
Mus musculus [2] = assay: Compound was tested in mouse tail-flick analgesic antagonist assay vs morphine at 30 mg/kg; Inactive; format: functional, organism-based; design: dose 30 mg/kg
Mus musculus [3] = assay: Compound was tested for its analgesic activity in mouse hotplate assay at 20 mg/kg; Inactive; format: functional, organism-based; design: dose 20 mg/kg
Mus musculus [4] = assay: Compound was tested in mouse tail-flick analgesic antagonist assay vs morphine at 30 mg/kg; format: functional
Mus musculus [5] = species: Mus musculus; assay: Compound was tested for its analgesic activity in mouse hotplate assay; format: functional
Mus musculus [6] = species: Mus musculus; assay: Compound was tested in mouse tail-flick antinociceptive assay; format: functional
Mus musculus [7] = species: Mus musculus; assay: Compound was tested in phenylquinone antinociceptive assay; format: functional
Mus musculus [8] = assay: Compound was tested in mouse tail-flick antinociceptive assay at 30 mg/kg; Inactive; format: functional, organism-based; design: dose 30 mg/kg
Mus musculus [9] = species: Mus musculus; assay: Compound was tested in mouse tail-flick analgesic antagonist assay vs morphine; format: functional
Mus musculus [10] = species: Mus musculus; assay: Compound was evaluated for antagonism in the mouse vas deferens assay in the presence of morphine at 10E-6 M; Inactive; format: functional, organism-based
Mus musculus [11] = species: Mus musculus; assay: Compound was evaluated for analgesic response in the mouse vas deferens assay in the presence of naltrexone. (max response 43.4+/-8.1%); format: functional, organism-based
Mus musculus [12] = species: Mus musculus; assay: Compound was evaluated for analgesic response in the mouse vas deferens assay (max response 77.1+/-8.0%); format: functional, organism-based
Mus musculus [13] = species: Mus musculus; assay: Compound was tested in phenylquinone antinociceptive assay.; format: functional
Mus musculus [14] = species: Mus musculus; assay: Compound was tested in mouse tail-flick antinociceptive assay.; format: functional
Mus musculus [15] = species: Mus musculus; assay: The compound was evaluated for analgesic response in the mouse vas deferens assay (max response 80.6+/-4.0%); format: functional, organism-based
Mus musculus [16] = species: Mus musculus; assay: Compound was evaluated for analgesic response in the mouse vas deferens assay in the presence of naltrexone. (max response […]); format: functional, organism-based
Mus musculus [17] = assay: Compound was tested for its analgesic activity in mouse hotplate assay at 50 mg/kg; Inactive; format: functional, organism-based; design: dose 50 mg/kg
Mus musculus [18] = species: Mus musculus; assay: Compound was evaluated for antagonism in the mouse vas deferens assay at 10E-6 M; Inactive; format: functional, organism-based
Mus musculus [19] = species: Mus musculus; assay: Compound was evaluated for analgesic response in the mouse vas deferens assay at 10E-5 M; Inactive; format: functional, organism-based

| SMILES | AD50 (Mus musculus [2]) | ED50 (Mus musculus [3]) | ED50 (Mus musculus [5]) | ED50 (Mus musculus [6]) | ED50 (Mus musculus [7]) | also measured |
| --- | --- | --- | --- | --- | --- | --- |
| COc1ccc2c3c1OC[C@@]31CCN(C)C(C2)[C@@H]1CCCO | inactive | inactive | – | – | – | ED50 (Mus musculus [1]): inactive |
| C=CCN1CC[C@]23c4c5ccc(O)c4O[C@H]2C(=O)CC[C@@]3(O)[C@H]1C5.Cl [NALOXONE HYDROCHLORIDE] | – | – | – | – | – | AD50 (Mus musculus [4]): 0.035 mg/kg |
| CN1CC[C@]23c4c5ccc(O)c4O[C@H]2[C@@H](O)C=C[C@H]3[C@H]1C5.CN1CC[C@]23c4c5ccc(O)c4O[C@H]2[C@@H](O)C=C[C@H]3[C@H]1C5.O=S(=O)(O)O | – | – | 1.2 mg/kg | – | – | – |
| CCC[C@H]1C2Cc3ccc(O)c4c3[C@]1(CCN2CCc1ccccc1)CO4 | inactive | – | 1.7 mg/kg | 1.4 mg/kg | 0.2 mg/kg | – |
| C=CCN1CC[C@]23COc4c(O)ccc(c42)CC1[C@@H]3CCC | – | inactive | – | – | – | ED50 (Mus musculus [8]): inactive; AD50 (Mus musculus [9]): 0.4 mg/kg |
| CCC[C@H]1C2Cc3ccc(O)c4c3[C@]1(CCN2C)CO4 | inactive | – | 1.8 mg/kg | 0.4 mg/kg | 0.1 mg/kg | ED50 (Mus musculus [10]): inactive; pEC50 (Mus musculus [11]): 5.48; pEC50 (Mus musculus [12]): 6.46 |
| COc1ccc2c3c1O[C@H]1[C@@H](O)C=C[C@H]4[C@@H](C2)N(C)CC[C@@]341.COc1ccc2c3c1O[C@H]1[C@@H](O)C=C[C@H]4[C@@H](C2)N(C)CC[C@@]341.O.O=P(O)(O)O.O=P(O)(O)O [CODEINE PHOSPHATE] | inactive | – | 9.3 mg/kg | – | – | ED50 (Mus musculus [13]): 1.1 mg/kg; ED50 (Mus musculus [14]): 14.5 mg/kg |
| CCC[C@H]1C2Cc3cccc4c3[C@]1(CCN2C)CO4 | inactive | inactive | – | 20.7 mg/kg | 2.9 mg/kg | – |
| CCC[C@H]1C2Cc3ccc(OC(C)=O)c4c3[C@]1(CCN2C)CO4 | inactive | – | – | – | – | ED50 (Mus musculus [10]): inactive; ED50 (Mus musculus [13]): 0.2 mg/kg; pEC50 (Mus musculus [15]): 7.07; pEC50 (Mus musculus [16]): 6.37; ED50 (Mus musculus [14]): 0.7 mg/kg |
| CCOC(=O)CC[C@H]1C2Cc3ccc(OC)c4c3[C@]1(CCN2C)CO4 | inactive | – | – | – | – | ED50 (Mus musculus [8]): inactive; ED50 (Mus musculus [17]): inactive |
| CCC[C@H]1C2Cc3ccc(OC)c4c3[C@]1(CCN2C)CO4 | inactive | inactive | – | 8.1 mg/kg | 0.8 mg/kg | EC50 (Mus musculus [18]): Not Active; EC50 (Mus musculus [19]): Not Active |
